Entries after “also recorded” stand apart in the source; their conditions may differ.
What was measured:
[1] = tested on: cytosolic beta-lactamase reporter; assay: Wash-out of inhibitor from Jurkat C2 cells (M1 receptor, NF-AT beta-lactamase reporter) (Example III); format: cell-based
Method: (§1) One day before the assay, CHO cells (an adherent cell line) expressing a cytosolic beta-lactamase reporter gene (WO 96/30540 to Tsien et al., published Oct. 3, 1996)) under control of a G-protein coupled receptor (GPCR) were plated in six clear-bottom 96-well microtiter plates at 75% confluency. The cells in half of the wells were stimulated overnight with agonist to the GPCR. Thus, these cells expressed high levels of the reporter enzyme encoded by the reporter gene. The other half of the cells were maintained without agonist in media having dialyzed fetal calf serum. This population is representative of cells with only background levels of beta-lactamase expression. […] After thirty minutes of incubation, the fluorescence from the wells was determined using a microtiter plate fluorimeter with excitation at 395/20nm and emission at 460/40nm and 530/30nm. The raw fluorescence emission values were corrected for the signal from wells without cells. […]
These studies used a Jurkat cell clone (referred to as "C2 cells" ) containing the M1 -receptor and a cytosolic beta-lactamase reporter gene (WO 96/30540 to Tsien et al., published Oct. 3, 1996)) regulated by a NF-AT response element. […] Higher beta-lactamase activity was detected in the cells as the time after the inhibitor was washed out of the cells increased.

[2] = target: T1, cytosolic beta-lactamase reporter enzyme (Escherichia coli, UniProt P62593); assay: Inhibition of cytosolic beta-lactamase reporter activity in live Jurkat cells, CMV promoter (Example II); format: cell-based; conditions: 300 μM inhibitor, one hour at 37° C.
T1 construct: CCF2/AM read-out
T1 sequence (P62593 24-286 limits assumed): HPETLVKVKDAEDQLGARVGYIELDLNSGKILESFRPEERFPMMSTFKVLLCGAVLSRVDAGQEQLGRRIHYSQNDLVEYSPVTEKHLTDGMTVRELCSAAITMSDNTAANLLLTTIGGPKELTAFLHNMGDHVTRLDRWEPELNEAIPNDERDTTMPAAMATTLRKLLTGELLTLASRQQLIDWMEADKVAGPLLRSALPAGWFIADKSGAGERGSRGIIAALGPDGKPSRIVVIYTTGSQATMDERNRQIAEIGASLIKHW
Method: as §1
Jurkat cells (a non-adherent cell line) expressing a cytosolic beta-lactamase reporter enzyme (WO 96/30540 to Tsien et al., published Oct. 3, 1996) under the control of the constitutively active cytomegalovirus early promoter (CMV promoter) were incubated with three inhibitors: clavulanic acid, imipenem and HOB-1-70. […] Cells were treated for one hour at 37° C., after which beta-lactamase reporter activity was assessed as in Example I (FIG. 2).

cytosolic beta-lactamase = target: T2, cytosolic beta-lactamase (Escherichia coli, UniProt P62593); assay: Inhibitor added together with CCF2/AM in CHO nuclear receptor beta-lactamase reporter cells (Example IX); format: cell-based
T2 construct: CCF2/AM read-out
T2 sequence (P62593 24-286 limits assumed): as above

beta-lactamase = conditions: cited from earlier work
[3] = tested on: cytosolic beta-lactamase activity; assay: Background versus de novo beta-lactamase activity in CHO GPCR reporter cells after inhibitor pretreatment (Example V); format: cell-based; conditions: 300 μM clavulanic acid sixteen hours, washed, unstimulated, three hours
Method: as §1, with “expression. These unstimulated cells expressed the reporter enzyme at levels lower than in the stimulated cells. After sixteen hours, the media was removed, the stimulated cells and the unstimulated cells were washed once by replacing the culture media by […] (BSA). Because CHO cells are adherent, aspiration is the preferred method of removing culture media, which is then replaced with wash media or wash solution.” for “expression.”

[4] = target: T1, cytosolic beta-lactamase reporter enzyme; assay: Irreversibility of intracellular beta-lactamase inhibition in CHO GPCR reporter cells (Example IV); format: cell-based; conditions: washed
[5] = target: T1, cytosolic beta-lactamase reporter enzyme; assay: Agonist titration in CHO GPCR reporter cells with or without inhibitor pretreatment (Example VI); format: cell-based
[6] = tested on: background beta-lactamase activity (cytosolic); assay: Background beta-lactamase activity in CHO reporter cells after blocking enzyme synthesis (Example I); format: cell-based; conditions: 40 μg/ml cycloheximide, low and high expressing CHO cells, even after 5 hours
Method: as §1, with “expression. These unstimulated cells expressed the reporter enzyme at levels lower than in the stimulated cells. After sixteen hours, the media was removed, the stimulated cells and the unstimulated cells were washed once by replacing the culture media by aspiration with an equal volume of phosphate buffered saline and then treated with 40 μg/ml cycloheximide in RPMI medium 1640 with 0.1% bovine serum albumin (BSA).” for “expression.”

| Structure (SMILES) | beta-lactamase activity, no-wash control ([1]; 100 microM clavulanic acid for sixteen hours, inhibitor present throughout, with or without 100 microM carbacol) | de novo beta-lactamase activity after wash-out of inhibitor ([1]; 100 microM clavulanic acid sixteen hours, washed once, 0-3 hours after wash, then 100 microM carbacol for three hours) | reduction of cytosolic beta-lactamase reporter activity [2] | ratio of fluorescence from stimulated cells over unstimulated cells (cytosolic beta-lactamase; 16.7 microμ clavulanic acid present) | improvement in signal-to-noise ratio (cytosolic beta-lactamase; 16.7 microμ clavulanic acid versus absence of inhibitor) | background (unstimulated) ratio levels (cytosolic beta-lactamase; CHO nuclear receptor reporter cells, 16.7 microμ clavulanic acid present during CCF2/AM loading) | beta-lactamase activity in stimulated cells (cytosolic beta-lactamase; agonist-stimulated CHO cells, 16.7 microμ clavulanic acid present during CCF2/AM loading) | molecules of inhibitor hydrolyzed on average before the beta-lactamase is irreversibly inactivated (beta-lactamase; beta-lactamase used in the cell based assays, source not given) | reversibility of beta-lactamase inhibition (beta-lactamase; literature (Bulychev et al. 1995; Knowles 1985)) | background beta-lactamase reporter activity after pretreatment [3] | persistence of inhibition of intracellular beta-lactamase reporter enzyme ([4]; 300 μM clavulanic acid pretreatment, cycloheximide) | ratio values (460/40nm over 530/30nm emission) ([4]; 300 μM clavulanic acid sixteen hours, 40 μg/ml cycloheximide, low and high expressing cells, even after five hours) | background beta-lactamase activity in agonist assay ([5]; CHO cells pretreated with 300 μM clavulanic acid sixteen hours, washed, three hours agonist) | signal-to-noise ratio of agonist assay ([5]; cells pretreated with clavulanic acid versus untreated) | ratio values (460/40nm over 530/30nm emission) [6] |
| --- | --- | --- | --- | --- | --- | --- | --- | --- | --- | --- | --- | --- | --- | --- | --- |
| O=C(O)[C@H]1/C(=C/CO)O[C@@H]2CC(=O)N21 [clavulanic acid] | beta-lactamase activity, both residual and synthesized de novo, was reduced | Stimulation of cells, even immediately after the wash, results in de novo synthesis of beta-lactamase that can be detected | reduced the reduced beta-lactamase activity in these cells to levels found in cells that do not have the reporter; also recorded: essentially reduced reporter beta-lactamase activity to values found for a naive Jurkat population | 32 fold | almost a three-fold improvement | 0.090±0.015 | did not change significantly | about 100 molecules | irreversible | effective means of lowering the background beta-lactamase reporter activity; also recorded: readily inhibited | irreversibly inhibited; also recorded: remains inhibited for at least five hours | about 0.2 | much lower | the signal-to-noise ratio was improved | – |
| C[C@@H](O)[C@H]1C(=O)N2C(C(=O)O)=C(SCCN=CN)C[C@H]12 [imipenem] | – | – | did not have a similar effect | – | – | – | – | – | – | – | – | – | – | – | – |
| C[C@@H]1C[C@@H]([C@H](O)CC2CC(=O)NC(=O)C2)C(=O)[C@@H](C)C1 [cycloheximide] | – | – | – | – | – | – | – | – | – | – | – | – | – | – | above 0.2 |
